Test results from patent US8580825B2, “Oxadiazole inhibitors of leukotriene production” (Boehringer Ingelheim International GmbH, priority 2010, dated 2013).

Key:
ApoE−/−xCD4dnTβRII mice = settings: infusion, treated for four weeks; cited from earlier work
[1] = system: apoE/LDL-R double knockout mice; settings: oral dosing, high-fat diet from 2 months of age to 6 months; cited from earlier work
[2] = system: synthesis of LTB4 in human whole blood; assay: human whole blood LTB4 production inhibition assay; assay type: cell-based; settings: calcimycin stimulated, read-out: hWB LTB4 IC50
In short: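 Heparinized human whole blood was preincubated with compound for 15 min at 37° C, then stimulated with calcimycin (20 μM final, in PBS pH 7.4) for a further 30 min at 37° C. Plasma LTB4 was quantified by antibody-based homogeneous time-resolved fluorescence.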

[3] = biological target: T1, recombinant human FLAP protein (Homo sapiens, UniProt P20292); assay: FLAP binding assay (Scintillation Proximity Assay, displacement of [125I]L-691,831); settings: for IC50: read-out: FLAP SPA IC50
T1 construct: made in house; host or cells: Sf9 insect cells (100,000xg membrane fraction used)
T1 sequence (P20292 1-161): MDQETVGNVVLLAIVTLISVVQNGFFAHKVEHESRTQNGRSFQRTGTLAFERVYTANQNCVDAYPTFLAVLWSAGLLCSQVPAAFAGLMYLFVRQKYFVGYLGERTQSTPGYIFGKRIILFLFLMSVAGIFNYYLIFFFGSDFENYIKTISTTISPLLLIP
In short: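 Scintillation proximity displacement of [125I]L-691,831 (0.08 nM) from membranes of sf9 cells expressing recombinant human FLAP (5 μg/well) on WGA SPA beads, pH 7.5 Tris buffer. Plates shaken 2 h before counting. Non-specific binding defined with 10 μM unlabelled L-691,831.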

[4] = system: biomarkers for myocardial infarction risk; settings: clinical trial; cited from earlier work
human glomerulonephritis = settings: clinical trial; cited from earlier work

Row | IC50 [2] | IC50 [3] | Structure (SMILES) | other results
1 | – | – | CC(C)c1ccc2c(c1)c(SC(C)(C)C)c(CC(C)(C)C(=O)O)n2Cc1ccc(Cl)cc1 [MK-886] | decrease in plaque area in the aortic root (ApoE−/−xCD4dnTβRII mice): ~40%; decrease in plaque coverage in the aorta [1]: 56%; decrease in plaque coverage in the aortic root [1]: 43%
2 | 1500 nM | 300 nM | COCCOCCn1cc(-c2nc(C(C)(C)c3ccc(-c4cnc(N)nc4)nc3)no2)cn1 [Example 91, 5-{5-[2-(5-{1-[2-(2-methoxyethoxy)ethyl]-1H-pyrazol-4-yl}-1,2,4-oxadiazol-3-yl)propan-2-yl]pyridin-2-yl}pyrimidin-2-amine] | –
3 | – | – | O=C(O)[C@@H](c1ccc(OCc2ccc3ccccc3n2)cc1)C1CCCC1 [DG-031] | effect on biomarkers for myocardial infarction risk [4]: dose-dependent suppression of several biomarkers
4 | 150 nM | 44 nM | CN(C)C(=O)Cn1cc(-c2nc([C@@](C)(c3ccc(-c4ccc(N)nc4)nc3)C3CC3)no2)cn1 [Example 140, 2-(4-{3-[(R)-1-(6′-Amino-[2,3′]bipyridinyl-5-yl)-1-cyclopropyl-ethyl]-[1,2,4]oxadiazol-5-yl}-pyrazol-1-yl)-N,N-dimethyl-acetamide] | –
5 | 52 nM | 32 nM | COCCn1cc(-c2nc([C@@](C)(c3ccc(-c4cnc(N)nc4)nc3)C3CC3)no2)cn1 [Example 75, 5-{5-[(1R)-1-cyclopropyl-1-{5-[1-(2-methoxyethyl)-1H-pyrazol-4-yl]-1,2,4-oxadiazol-3-yl}ethyl]pyridin-2-yl}pyrimidin-2-amine] | –
6 | 167 nM | 27 nM | CC(C)(O)Cn1cc(-c2nc(C(C)(c3ccc(-c4cnc5[nH]ccc5n4)nc3)C3CC3)no2)cn1 (centres unmarked) [Example 159, 1-[4-(3-{1-Cyclopropyl-1-[6-(5H-pyrrolo[2,3-b]pyrazin-2-yl)-pyridin-3-yl]-ethyl}-[1,2,4]oxadiazol-5-yl)-pyrazol-1-yl]-2-methyl-propan-2-ol] | –
7 | 68 nM | 4.7 nM | CC(C)C(C)(c1ccc(-c2cnc(N)nc2)nc1)c1noc(-c2cnn(C)c2)n1 (centres unmarked) [Example 3, 5-(5-{3-methyl-2-[5-(1-methyl-1H-pyrazol-4-yl)-1,2,4-oxadiazol-3-yl]butan-2-yl}pyridin-2-yl)pyrimidin-2-amine] | –
8 | 190 nM | 24 nM | COCCNC(=O)Cn1cc(-c2nc([C@@](C)(c3ccc(-c4cnc(N)nc4)nc3)C(C)C)no2)cn1 [Example 152, 2-[4-(3-{(R)-1-[6-(2-Amino-pyrimidin-5-yl)-pyridin-3-yl]-1,2-dimethyl-propyl}-1,2,4-oxadiazol-5-yl)-pyrazol-1-yl]-N-(2-methoxy-ethyl)-acetamide] | –
9 | 140 nM | 4 nM | CC(C)C(C)(c1ccc(-c2cnc(N)nc2)nc1)c1noc(-c2cnc(NC(C)(C)CO)cn2)n1 (centres unmarked) [Example 20, 2-{[5-(3-{2-[6-(2-aminopyrimidin-5-yl)pyridin-3-yl]-3-methylbutan-2-yl}-1,2,4-oxadiazol-5-yl)pyrazin-2-yl]amino}-2-methylpropan-1-ol] | –
10 | 74 nM | 26 nM | CC(C)[C@](C)(c1ccc(-c2cnc(N)nc2)nc1)c1noc(-c2cnc(NC(C)(C)CO)cn2)n1 [Example 94, 2-[5-(3-{(R)-1-[6-(2-Amino-pyrimidin-5-yl)-pyridin-3-yl]-1,2-dimethyl-propyl}-[1,2,4]oxadiazol-5-yl)-pyrazin-2-ylamino]-2-methyl-propan-1-ol] | –
11 | 860 nM | 17.3 nM | CC(C)C(C)(c1ccc(-c2cnc(N)nc2)nc1)c1noc(-c2ccc(NCC(C)(C)O)nn2)n1 (centres unmarked) [Example 32, 1-{[6-(3-{2-[6-(2-aminopyrimidin-5-yl)pyridin-3-yl]-3-methylbutan-2-yl}-1,2,4-oxadiazol-5-yl)pyridazin-3-yl]amino}-2-methylpropan-2-ol] | –
12 | 57 nM | 41 nM | Cc1nc(N)cnc1-c1ccc([C@](C)(c2noc(-c3cnn(CC(C)(C)O)c3)n2)C2CC2)cn1 [Example 166, 1-[4-(3-{(R)-1-[6-(5-Amino-3-methyl-pyrazin-2-yl)-pyridin-3-yl]-1-cyclopropyl-ethyl}-[1,2,4]oxadiazol-5-yl)-pyrazol-1-yl]-2-methyl-propan-2-ol] | –
13 | 160 nM | 12 nM | COCCOCCn1cc(-c2nc(C(C)(c3ccc(-c4cnc(N)nc4)nc3)C(C)C)no2)cn1 (centres unmarked) [Example 30, 5-{5-[2-(5-{1-[2-(2-methoxyethoxy)ethyl]-1H-pyrazol-4-yl}-1,2,4-oxadiazol-3-yl)-3-methylbutan-2-yl]pyridin-2-yl}pyrimidin-2-amine] | –
14 | – | – | CC(C)(C)Sc1c(CC(C)(C)C(=O)O)n(Cc2ccc(Cl)cc2)c2ccc(OCc3ccc4ccccc4n3)cc12 [MK-591] | effect on proteinuria (human glomerulonephritis): reduce proteinuria
15 | > 5000 nM | – | Cc1ccc(C)n1-c1ncc(-c2ccc(C(C)(c3noc(-c4cn[nH]c4)n3)C(C)C)cn2)cn1 (centres unmarked) [Example 36, 2-(2,5-dimethyl-1H-pyrrol-1-yl)-5-(5-{3-methyl-2-[5-(1H-pyrazol-4-yl)-1,2,4-oxadiazol-3-yl]butan-2-yl}pyridin-2-yl)pyrimidine] | inhibition at 1 µM ([3]; read-out: FLAP SPA inhibition at 1 uM): 30%
16 | 92 nM | 15 nM | CC(C)Nc1cnc(-c2nc([C@@](C)(c3ccc(-c4cnc(N)nc4)nc3)C(C)C)no2)cn1 [Example 92, 5-[5-{(R)-1-[5-(5-Isopropylamino-pyrazin-2-yl)-[1,2,4]oxadiazol-3-yl]-1,2-dimethyl-propyl}-pridin-2-yl)-pyrimidin-2-ylamine] | –
17 | 1100 nM | 80.9 nM | CC(C)[C@@](C)(c1ccc(-c2cnc(N)nc2)nc1)c1noc(-c2cnn(CCF)c2)n1 [Example 49, 5-{5-[(2S)-2-{5-[1-(2-fluoroethyl)-1H-pyrazol-4-yl]-1,2,4-oxadiazol-3-yl}-3-methylbutan-2-yl]pyridin-2-yl}pyrimidin-2-amine] | –
18 | 30 nM | 10 nM | CN(C(=O)Cn1cc(-c2nc([C@@](C)(c3ccc(-c4cnc(N)nc4)nc3)C3CC3)no2)cn1)C(C)(C)C [Example 106, 2-[4-(3-{(R)-1-[6-(2-Amino-pyrimidin-5-yl)-pyridin-3-yl]-1-cyclopropyl-ethyl}-[1,2,4]oxadiazol-5-yl)-pyrazol-1-yl]-N-tert-butyl-N-methyl-acetamide] | –
19 | 1400 nM | 141 nM | CC(C)[C@@](C)(c1ccc(-c2cnc(N)nc2)nc1)c1noc(-c2cnn(CC(F)F)c2)n1 [Example 45, 5-{5-[(2S)-2-{5-[1-(2,2-difluoroethyl)-1H-pyrazol-4-yl]-1,2,4-oxadiazol-3-yl}-3-methylbutan-2-yl]pyridin-2-yl}pyrimidin-2-amine] | –
20 | 89 nM | 13 nM | CC(C)(C)NC(=O)Cn1cc(-c2nc([C@@](C)(c3ccc(-c4cnc(N)nc4)nc3)C3CC3)no2)cn1 [Example 102, 2-[4-(3-{(R)-1-[6-(2-Amino-pyrimidin-5-yl)-pyridin-3-yl]-1-cyclopropyl-ethyl}-[1,2,4]oxadiazol-5-yl)-pyrazol-1-yl]-N-tert-butyl-acetamide] | –
21 | 28 nM | 21 nM | CC(C)Nc1cnc(-c2nc([C@](C)(c3ccc(-c4cnc(N)nc4)nc3)C(C)C)no2)cn1 [Example 93, 5-(5-{(S)-1-[5-(5-Isopropylamino-pyrazin-2-yl)-[1,2,4]oxadiazol-3-yl]-1,2-dimethyl-propyl}-pyridin-2-yl)-pyrimidin-2-ylamine] | –
22 | 1900 nM | 350 nM | CC(C)C(C)(c1ccc(-c2cnc(N)nc2)nc1)c1noc(-c2cn(CC(C)(C)O)cn2)n1 (centres unmarked) [Example 85, 1-[4-(3-{2-[6-(2-aminopyrimidin-5-yl)pyridin-3-yl]-3-methylbutan-2-yl}-1,2,4-oxadiazol-5-yl)-1H-imidazol-1-yl]-2-methylpropan-2-ol] | –
23 | 420 nM | 19.4 nM | CC(C)C(C)(c1ccc(-c2cnc(N)nc2)nc1)c1noc(-c2ccc(I)cc2)n1 (centres unmarked) [Example 62, 5-(5-{2-[5-(4-iodophenyl)-1,2,4-oxadiazol-3-yl]-3-methylbutan-2-yl}pyridin-2-yl)pyrimidin-2-amine] | –
24 | 450 nM | 34 nM | CN(C)C(=O)Cn1cc(-c2nc([C@@](C)(c3ccc(-c4cnc(N)cn4)nc3)C3CC3)no2)cn1 [Example 122, 2-[4-(3-{(R)-1-[6-(5-Amino-pyrazin-2-yl)-pyridin-3-yl]-1-cyclopropyl-ethyl}-[1,2,4]oxadiazol-5-yl)-pyrazol-1-yl]-N,N-dimethyl-acetamide] | –
